From US4895841A (priority 1987, dated 1990)
Counter-ions that a name gives are not always drawn. Like-named read-outs stand apart in the source and are kept apart here.

Key:
acetylcholinesterase [1] = target: T1, acetylcholinesterase (Mus musculus, UniProt P21836); assay: biochemical; format: biochemical
T1 construct: A mouse brain homogenate was used as an acetylcholinesterase source; from tissue; host or cells: mouse brain homogenate

[2] = system: passive avoidance learning impairment induced by scopolamine; assay: Action on passive avoidance learning impairment induced by scopolamine; format: in vivo, Male Wistar rats; settings: scopolamine 0.5 mg/kg i.p.
Procedure: Action on passive avoidance learning impairment induced by scopolamine
See Z. Bokolanecky & Jarvik: Int. J. Neuropharmacol, 6, 217-222(1967).
Male Wistar rats were used as the test animal and a step-through light and dark box was used as an apparatus. A sample to detect was orally administered one hour before the training and the rats were treated with 0.5 mg/kg (i.p.) of scopolamine 30 min. before the training. In a training experiment, the animal was placed into a light room and, just after the animal had entered into a dark room, a guillotine door was closed, followed by delivery of an electric shock from the gid of the floor. After six hours, the animal was again placed into a light room for a retention experiment, and the time taken for the animal to enter the dark room was measured for evaluation of the effect of the sample.
The difference in the response time between the physiological saline administration group and the scopolamine administration group was taken as 100%, and the effect of the sample was expressed in terms of the percentage antagonism by the sample (Reverse %).
The number of animals per dose was 10 to 17.

Toxicity tests on rats = settings: rat, in vivo, no serious toxicity
acetylcholinesterase [3] = assay: Ex vivo acetylcholinesterase inhibitory action in rat cerebral hemispheres after oral administration; settings: 1 h after administration, vs saline control
Description: A sample to detect was orally administered to rats. After one hour of the administration, the cerebral hemispheres were dissected and homogenized, followed by the determination of the acetylcholinesterase activity. The group of rats treated with physiological saline was used as the control. Inhibition of AChE by samples ex vivo was expressed in terms of inhibition percent of the control value.

[4] = 0.25 mg/kg oral 1 h before training
[5] = 0.5 mg/kg oral 1 h before training
[6] = read-out: AChE inhibitory activity IC50
[7] = 1.0 mg/kg oral 1 h before training
[8] = read-out: Inhibitory activity on AChE IC50

T1 sequence (P21836 32-614): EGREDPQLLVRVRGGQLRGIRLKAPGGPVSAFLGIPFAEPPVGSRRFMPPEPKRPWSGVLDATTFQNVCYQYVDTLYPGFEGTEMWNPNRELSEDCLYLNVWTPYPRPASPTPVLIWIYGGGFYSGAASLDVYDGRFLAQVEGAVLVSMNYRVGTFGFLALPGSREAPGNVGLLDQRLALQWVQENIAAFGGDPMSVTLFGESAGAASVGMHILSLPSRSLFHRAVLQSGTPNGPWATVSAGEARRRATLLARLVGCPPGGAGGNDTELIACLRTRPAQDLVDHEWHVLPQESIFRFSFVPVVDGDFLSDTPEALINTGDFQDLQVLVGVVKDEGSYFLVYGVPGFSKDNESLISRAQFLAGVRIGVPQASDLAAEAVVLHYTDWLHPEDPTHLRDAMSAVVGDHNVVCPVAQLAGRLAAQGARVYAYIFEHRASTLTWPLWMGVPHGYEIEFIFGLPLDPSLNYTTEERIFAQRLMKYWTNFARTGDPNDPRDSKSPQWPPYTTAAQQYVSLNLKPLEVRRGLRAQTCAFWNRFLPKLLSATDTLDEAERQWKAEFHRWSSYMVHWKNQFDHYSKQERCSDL

For `CC(C)OC(=O)c1nccnc1C(=O)NCCC1CCN(Cc2ccccc2)CC1` [Example 13], the IC50 (acetylcholinesterase [1]) was 0.026 µM, the “Reverse % (percentage antagonism of scopolamine effect)” value [2, 4] was 39% and the “Reverse % (percentage antagonism of scopolamine effect)” value [2, 5] was 27%. For the same molecule, the LD50 (Toxicity tests on rats) was ≥ 100 mg/kg.

With `O=C(c1ccncc1)N(CCC1CCN(Cc2ccccc2)CC1)c1ccccc1` [Example 19, dihydrochloride] the IC50 (acetylcholinesterase [1]; [6]) was 0.064 µM, the “Reverse % (percentage antagonism of scopolamine effect)” value [2, 5] was 37% and the “Reverse % (percentage antagonism of scopolamine effect)” value [2, 7] was 39%. For the same molecule, the LD50 (Toxicity tests on rats) was ≥ 100 mg/kg.

With `CCN1CC(=O)N(CCC2CCN(Cc3ccccc3)CC2)c2ccccc2C1` [Example 69] the “Reverse % (percentage antagonism of scopolamine effect)” value [2, 5] was 22%, the “Reverse % (percentage antagonism of scopolamine effect)” value [2, 7] was 38% and the LD50 (Toxicity tests on rats) was ≥ 100 mg/kg.

With `COc1cc2c(cc1OC)C(=O)C(CC1CCN(Cc3ccccc3)CC1)C2` (centres unmarked) [Example 4, 1-Benzyl-4-[(5,6-dimethoxy-1-indanon)-2-yl]-methylpiperidine hydrochloride] the “Reverse % (percentage antagonism of scopolamine effect)” value ([2]; 0.125 mg/kg oral 1 h before training) was 55% and the “Reverse % (percentage antagonism of scopolamine effect)” value [2, 4] was 36%.

In the case of `O=C(NCCC1CCN(Cc2ccccc2)CC1)c1cnc2ccccc2n1` [Example 15, N-[4'-(1'-Benzylpiperidyl)ethyl]-2-quinoxalinecarboxylic amide], the IC50 (acetylcholinesterase [1]; [6]) is reported as 0.094 µM, the “AChE inhibitory action (%)” value (acetylcholinesterase [3]; 10 mg/kg oral) is reported as 5% and the “AChE inhibitory action (%)” value (acetylcholinesterase [3]; 30 mg/kg oral) is reported as 14%. For the same molecule, the “AChE inhibitory action (%)” value (acetylcholinesterase [3]; 100 mg/kg oral) was 18%, the “Reverse % (percentage antagonism of scopolamine effect)” value [2, 7] was 51% and the “Reverse % (percentage antagonism of scopolamine effect)” value ([2]; 2.0 mg/kg oral 1 h before training) was 30%. For the same molecule, the LD50 (Toxicity tests on rats) was ≥ 100 mg/kg.

With `COc1cc2c(cc1OC)C(=O)C(CC1CCN(Cc3ccccc3[N+](=O)[O-])CC1)C2` (centres unmarked) [Example 230] the IC50 (acetylcholinesterase [1]; [8]) was 0.16 µM.

For `O=C1C(=CC2CCN(Cc3ccccc3)CC2)CCCc2ccccc21` [Example 219], the IC50 (acetylcholinesterase [1]) was 19 µM.

With `COc1ccc2c(c1)C(=O)C(CC1CCN(Cc3ccccc3)CC1)C2` (centres unmarked) [Example 188] the IC50 (acetylcholinesterase [1]; [8]) was 0.081 µM.

`CCOc1cc2c(cc1OCC)C(=O)C(CC1CCN(Cc3ccccc3)CC1)C2` (centres unmarked) [Example 198] showed an IC50 (acetylcholinesterase [1]) of 0.0054 µM.

`CCOc1cc2c(cc1OCC)C(=O)C(=CC1CCN(Cc3ccccc3)CC1)C2` [Example 216] gave an IC50 (acetylcholinesterase [1]) of 0.017 µM.

`COc1cc2c(cc1OC)C(=O)C(C(C1CCN(Cc3ccccc3)CC1)C1Cc3cc(OC)c(OC)cc3C1=O)C2` (centres unmarked) [Example 249] showed an IC50 (acetylcholinesterase [1]) of 0.62 µM.

`O=C(CCC1CCN(Cc2ccccc2)CC1)Nc1ccncc1` [Example 48] showed an IC50 (acetylcholinesterase [1]) of 0.019 µM.

In the case of `COc1cc2c(cc1O)C(=O)C(CC1CCNCC1)C2` (centres unmarked) [Example 245], the IC50 (acetylcholinesterase [1]) is reported as 5 µM.

Molecule `O=C(c1cnccn1)N(CCC1CCN(Cc2ccccc2)CC1)c1ccccc1` [Example 95] has an IC50 (acetylcholinesterase [1]) of 0.085 µM.

For `COc1cccc(CN2CCC(CC3Cc4cc(OC)c(OC)cc4C3=O)CC2)c1` (centres unmarked) [Example 235], the IC50 (acetylcholinesterase [1]) was 0.22 µM.

With `COc1ccc2c(c1)C(=O)C(=CC1CCN(Cc3ccccc3)CC1)C2` [Example 206] the IC50 (acetylcholinesterase [1]; [8]) was 0.41 µM.

Molecule `COc1cc2c(cc1O)C(=O)C(CC1CCN(Cc3ccccc3)CC1)C2` (centres unmarked) [Example 196] has an IC50 (acetylcholinesterase [1]) of 0.0013 µM.

Work on `CN(CCC1CCN(Cc2ccccc2)CC1)C(=O)c1ccco1` [Example 120] yielded an IC50 (acetylcholinesterase [1]) of 0.19 µM.

For `O=C1c2cccnc2CN1CCC1CCN(Cc2ccccc2)CC1` [Example 5, 2-[4'-(1'-Benzylpiperidine)ethyl]-2,3-dihydro-1-oxypyrrolo[3,4-b]pyridine dihydrochloride], the IC50 (acetylcholinesterase [1]) was 0.1 µM.

`O=C1C(=CC2CCN(Cc3ccccc3)CC2)Cc2ccc(F)cc21` [Example 211] showed an IC50 (acetylcholinesterase [1]) of 2 µM.

With `O=C(NCCC1CCN(Cc2ccc(O)cc2)CC1)c1cnc2ccccc2n1` [Example 14, N-[4'-(1'-(p-Hydroxybenzyl)piperidine)ethyl]-2-quinoxalinecarboxylic amide hydrochloride] the IC50 (acetylcholinesterase [1]) was 0.038 µM.

`O=C1c2ccccc2CCc2ccccc2N1CCC1CCN(Cc2ccccc2)CC1` [Example 11, N-[4-(1'-Benzylpiperidyl)ethyl]-5,6,11,12-tetrahydrodibenzo[b,f]azocin-6-one hydrochloride] showed an IC50 (acetylcholinesterase [1]; [6]) of 0.068 µM.

With `COc1cc2c(c(OC)c1OC)C(=O)C(CC1CCN(Cc3ccccc3)CC1)C2` (centres unmarked) [Example 192] the IC50 (acetylcholinesterase [1]; in vitro, mouse brain homogenate, Table 10, read-out: Inhibitory activity on AChE IC50) was 0.013 µM.

Work on `COc1cc2c(cc1OC)C(=O)C(=CCCCC1CCN(Cc3ccccc3)CC1)C2` [Example 222] yielded an IC50 (acetylcholinesterase [1]) of 0.011 µM.

`O=C1c2ccccc2CCN1CCC1CCN(Cc2ccccc2)CC1` [Example 54] gave an IC50 (acetylcholinesterase [1]; [6]) of 1 µM.

`CN(CCC1CCN(CC2CCCCC2)CC1)C(=O)c1ccccc1` [Example 27, N-[4'-(1'-Cyclohexylmethylpiperidyl)ethyl]-N-methylbenzamide hydrochloride] showed an IC50 (acetylcholinesterase [1]; [6]) of 0.41 µM.
